Results reported in patent US20090131354A1, “miR-126 REGULATED GENES AND PATHWAYS AS TARGETS FOR THERAPEUTIC INTERVENTION” (priority 2007, published 2009).

Experiments:
[1] = test system: human A549 lung cancer xenografts; test: A549 lung cancer xenograft, cells electroporated before implantation; type: in vivo, NOD/SCID mice
Description: The inventors assessed the growth-inhibitory activity of hsa-miR-126 in human lung cancer xenografts grown in immunodeficient mice. Hsa-miR-126 was delivered into A549 and H460 lung cancer cells via electroporation using the Gene Pulser Xcell™ (BioRad) with the following settings: 15×10^6 cells with 5 μg miRNA in 200 μl OptiMEM, square wave pulse at 150 V for 10 ms. Electroporated cells (5×10^6) were mixed with BD Matrigel™, (BD Biosciences; San Jose, Calif., USA; cat. no. 356237) in a 1:1 ratio and injected subcutaneously into the flank of NOD/SCID mice (Charles River Laboratories, Inc.; Wilmington, Mass., USA). As a negative control, A549 and H460 cells were electroporated with negative control (NC) miRNA (Pre-miR™ microRNA Precursor Molecule-Negative Control #2; Ambion cat. no. AM17111) as described above. To assess the anti-oncogenic activity of hsa-miR-126, six animals were injected with A459 cells and six animals were injected with H460 cells. NC miRNA-treated cells were injected into the opposite flank of the same animal to control for animal-to-animal variability. Once tumors reached a measurable size (A549 at 7 days post injection; H460 at 5 days post injection), the length and width of tumors were determined every day for up to 11 days. Tumor volumes were calculated using the formula, Volume=length X width X width/2, in which the length is greater than the width. For animals carrying A549 xenografts, tumor volumes derived from NC-treated cells and hsa-miR-126-treated cells were averaged and plotted over time (FIG. 4). The p value, indicating statistical significance, is shown for values obtained on day 18 (p=0.0125).

[2] = test system: PPC-1 prostate cancer cells; test: Alamar Blue proliferation assay, PPC-1; type: cell-based, human; conditions: PPC-1 cells, 30 nM, normalized to negative control miRNA (100% proliferation)
From the text: The inventors assessed the therapeutic effect of hsa-miR-126 for prostate cancer by using 4 individual human prostate cancer cell lines. To measure cellular proliferation of prostate cancer cells, the following prostate cancer cell lines were used: PPC-1, derived from a bone metastasis; Du145, derived from a brain metastasis; RWPE2, derived from prostate cells immortalized by human papillomavirus 18 and transformed by the K-RAS oncogene; and LNCaP, derived from a lymph node metastasis (Stone et al., 1978; Horoszewicz et al., 1980; Brothman et al., 1991; Pretlow et al., 1993; Bello et al., 1997). PPC-1 and Du145 cells lack expression of the prostate-specific antigen (PSA) and are independent of androgen receptor (AR) signaling. In contrast, RWPE2 and LNCaP cells test positive for PSA and AR. Cells were transfected with synthetic hsa-miR-126 (Pre-miR™-hsa-miR-126, Ambion cat. no. AM 17100) or negative control miRNA (NC; Pre-miR™ microRNA Precursor Molecule-Negative Control #2; Ambion cat. no. AM17111) in a 96-well format using a lipid-based transfection reagent. […] Proliferation was assessed 4-7 days post-transfection using Alamar Blue™ (Invitrogen) following the manufacturer's instructions. […] Fluorescent light units (FLU) were measured after 3 hours, normalized to the control, and plotted as percent change in proliferation. […]

hsa-miR-126 (UCGUACCGUGAGUAAUAAUGC; synthetic pre-miR form, further chemistry not given here) [Synthetic hsa-miR-126 (Pre-miR™-hsa-miR-126, Ambion cat. no. AM17100)]
tumor size relative to control tumors ([1]; A549, day 18, n=6): all animals showed smaller tumors | tumor growth in vivo ([1]; A549 cells electroporated with miRNA before s.c. implantation): inhibited tumor growth in vivo | Ki-67 antigen in tumors (histology) ([1]; A549 tumors): diminished levels of the Ki-67 antigen | % proliferation [2]: 71.89%
